PMC9250534, “Synthesis and direct assay of large macrocycle diversities by combinatorial late-stage modification at picomole scale” (Nature Communications, 2022)
Numbered stars: 1 amine (or outer) side, 2 acyl side, 3 side chain; on linkers, the order of the positions; unused ones are H or OH. Bridge positions count the residues as written; N and C are the ends. Square brackets hold non-standard residues; d marks the D form. Peptide text beside a SMILES is read from it. * marks the point of attachment. Cysteamide = C(CS[*:3])N[*:1]; 4Amb = NCc1ccc(C(=O)O)cc1; Bz = O=C(c1ccccc1)*; Mpa = O=C(O)CCS

Target: T1, thrombin (Homo sapiens, UniProt P00734)
T1 construct: consists of two polypeptide chains of 36 (light chain) and 259 amino acid
Experiment: Thrombin inhibition screen of crude macrocycle reactions (residual thrombin activity, fluorogenic substrate Z-Gly-Gly-Arg-AMC)
Assay type: biochemical
Details: 10 µM macrocycle concentration; crude reactions, Library 1a-l; scaffold AA1-AA2-AA3 combined with 1-16 or '-'
Description: As a proof-of-concept, we screened the macrocycle library for inhibitors against thrombin, which is the central blood coagulation protease and an important therapeutic target. We conducted the screen for thrombin-inhibiting macrocycles in 384-well reaction plates. Briefly, each well contained a unique macrocycle (10 μM), 5 μL of thrombin (2 nM final conc.), and subsequently, 5 µL of a fluorogenic substrate to measure the residual thrombin activity and the extent of protease inhibition.
The assays were performed in 384-well plates using Tris buffer at pH 7.4 (100 mM Tris-Cl, 150 mM NaCl, 10 mM MgCl2, 1 mM CaCl2, 0.1% w/v BSA, 0.01% v/v Triton-X100, and 0.6% v/v DMSO) using thrombin at a final concentration of 2 nM and the fluorogenic substrate Z-Gly-Gly-Arg-AMC at a final concentration of 50 μM. Thrombin (5 μL, 6 nM) in the Tris-Cl buffer described above was added to each peptide using a BioTek MultiFlo microplate dispenser, and incubated for 10 min at room temperature. […] Data was collected and exported using the Tecan Infinite M200 Pro instrument software. […] For the negative controls (20 wells containing DMSO but no macrocycle), an average slope was calculated. The percent of thrombin inhibition was calculated by dividing the slopes and multiplying the results by 100.

percent residual thrombin activity	Compound
107.22%	O=C1CCSSCCNC(=O)[C@H](CCCCNC(=O)c2ccco2)NC(=O)[C@H](Cc2cnc[nH]2)NC(=O)c2ccc(cc2)CN1 [B3-H-D1/16]
107.378%	CC(C)[C@@H]1NC(=O)c2ccc(cc2)CNC(=O)CCSSCCNC(=O)[C@H](CCCCNC(=O)c2c[nH]c(=O)cn2)NC1=O [B3-V-D1/9]
106.658%	COc1ccc(C(=O)NCCCC[C@@H]2NC(=O)[C@H](C(C)C)NC(=O)c3ccc(cc3)CNC(=O)CCSSCCNC2=O)cn1 [B3-V-D1/10]
107.146%	O=C1CCSSCCNC(=O)[C@H](CCCCNC(=O)c2ccccc2)NC(=O)[C@@H](Cc2ccc(O)cc2)NC(=O)c2ccc(cc2)CN1 [B3-y-D1/1] ([Mpa][4Amb][dY]K(Bz)-Cysteamide; disulfide 1-C)
112.065%	Cc1nnsc1C(=O)NCCCC[C@@H]1NC(=O)[C@@H](Cc2ccc(O)cc2)NC(=O)c2ccc(cc2)CNC(=O)CCSSCCNC1=O [B3-y-D1/15]
103.519%	O=C(COc1ccccc1)NCCCC[C@@H]1NC(=O)[C@H]2CCCN(C2)C(=O)CCSSCCNC(=O)[C@H](CO)NC1=O [B4-D1-S/13]
101.061%	O=C(NCCCC[C@@H]1NC(=O)[C@@H](Cc2c[nH]c3ccccc23)NC(=O)[C@H]2CCCN(C2)C(=O)CCSSCCNC1=O)c1ccccc1 [B4-W-D1/1]
98.2761%	CC(C)CC(=O)NCCCC[C@@H]1NC(=O)[C@@H](Cc2c[nH]c3ccccc23)NC(=O)[C@H]2CCCN(C2)C(=O)CCSSCCNC1=O [B4-W-D1/8]
96.1174%	O=C(NCCCC[C@@H]1NC(=O)[C@@H](Cc2c[nH]c3ccccc23)NC(=O)[C@H]2CCCN(C2)C(=O)CCSSCCNC1=O)c1c[nH]c(=O)cn1 [B4-W-D1/9]
97.6967%	O=C(COc1ccccc1)NCCCC[C@@H]1NC(=O)[C@@H](Cc2c[nH]c3ccccc23)NC(=O)[C@H]2CCCN(C2)C(=O)CCSSCCNC1=O [B4-W-D1/13]
84.8525%	O=C(NCCCC[C@@H]1NC(=O)[C@@H](Cc2c[nH]c3ccccc23)NC(=O)[C@H]2CCCN(C2)C(=O)CCSSCCNC1=O)c1ccc(Cl)s1 [B4-W-D1/14]
98.9418%	NCCCC[C@@H]1NC(=O)[C@@H](Cc2c[nH]c3ccccc23)NC(=O)[C@H]2CCCN(C2)C(=O)CCSSCCNC1=O [B4-W-D1/-]
105.33%	O=C(NCCCC[C@@H]1NC(=O)[C@@H](Cc2c[nH]c3ccccc23)NC(=O)[C@H]2CCCN(C2)C(=O)CCSSCCNC1=O)c1ccccc1 [B4-w-D1/1]
116.689%	CC(C)CC(=O)NCCCC[C@@H]1NC(=O)[C@@H](Cc2c[nH]c3ccccc23)NC(=O)[C@H]2CCCN(C2)C(=O)CCSSCCNC1=O [B4-w-D1/8]
111.618%	O=C(NCCCC[C@@H]1NC(=O)[C@@H](Cc2c[nH]c3ccccc23)NC(=O)[C@H]2CCCN(C2)C(=O)CCSSCCNC1=O)c1c[nH]c(=O)cn1 [B4-w-D1/9]
115.4%	O=C(COc1ccccc1)NCCCC[C@@H]1NC(=O)[C@@H](Cc2c[nH]c3ccccc23)NC(=O)[C@H]2CCCN(C2)C(=O)CCSSCCNC1=O [B4-w-D1/13]
105.59%	O=C(NCCCC[C@@H]1NC(=O)[C@@H](Cc2c[nH]c3ccccc23)NC(=O)[C@H]2CCCN(C2)C(=O)CCSSCCNC1=O)c1ccc(Cl)s1 [B4-w-D1/14]
108.066%	NCCCC[C@@H]1NC(=O)[C@@H](Cc2c[nH]c3ccccc23)NC(=O)[C@H]2CCCN(C2)C(=O)CCSSCCNC1=O [B4-w-D1/-]
107.115%	O=C1CCSSCCNC(=O)[C@H](Cc2c[nH]c3ccccc23)NC(=O)[C@H](CCCCNC(=O)c2ccc(Cl)s2)NC(=O)c2cccc(c2)CN1 [B5-D1-W/14]
109.077%	CC[C@H](C)[C@@H]1NC(=O)[C@H](CCCNC(=O)c2cnccn2)NC(=O)c2cccc(c2)CNC(=O)CCSSCCNC1=O [B5-D2-I/2]
102.465%	CC[C@H](C)[C@@H]1NC(=O)[C@H](CCCNC(=O)c2cc(C)on2)NC(=O)c2cccc(c2)CNC(=O)CCSSCCNC1=O [B5-D2-I/3]
108.374%	CC[C@H](C)[C@@H]1NC(=O)[C@H](CCCNC(=O)c2c[nH]c(=O)[nH]c2=O)NC(=O)c2cccc(c2)CNC(=O)CCSSCCNC1=O [B5-D2-I/11]
103.906%	CC[C@H](C)[C@@H]1NC(=O)[C@H](CCCNC(=O)Cc2c[nH]c3ccccc23)NC(=O)c2cccc(c2)CNC(=O)CCSSCCNC1=O [B5-D2-I/12]
106.564%	CC[C@H](C)[C@@H]1NC(=O)[C@H](CCCNC(=O)COc2ccccc2)NC(=O)c2cccc(c2)CNC(=O)CCSSCCNC1=O [B5-D2-I/13]

percent residual thrombin activity	Compound
106.982%	CC[C@H](C)[C@@H]1NC(=O)[C@H](CCCNC(=O)c2snnc2C)NC(=O)c2cccc(c2)CNC(=O)CCSSCCNC1=O [B5-D2-I/15]
105.125%	CC[C@H](C)[C@@H]1NC(=O)[C@H](CCCNC(=O)c2ccco2)NC(=O)c2cccc(c2)CNC(=O)CCSSCCNC1=O [B5-D2-I/16]
101.444%	COc1ccc(C(=O)NCCCC[C@@H]2NC(=O)[C@H](CO)NC(=O)c3cccc(c3)CNC(=O)CCSSCCNC2=O)cn1 [B5-S-D1/10]
101.194%	CC(C)CC(=O)NCCCC[C@@H]1NC(=O)C2(CC2)CNC(=O)CCSSCCNC(=O)[C@H](CCC(N)=O)NC1=O [B6-D1-Q/8]
105.488%	NC(=O)CC[C@@H]1NC(=O)[C@H](CCCCNC(=O)c2c[nH]c(=O)[nH]c2=O)NC(=O)C2(CC2)CNC(=O)CCSSCCNC1=O [B6-D1-Q/11]
101.173%	NC(=O)CC[C@@H]1NC(=O)[C@H](CCCCNC(=O)c2ccco2)NC(=O)C2(CC2)CNC(=O)CCSSCCNC1=O [B6-D1-Q/16]
103.82%	NCCCC[C@@H]1NC(=O)C2(CC2)CNC(=O)CCSSCCNC(=O)[C@H](CCC(N)=O)NC1=O [B6-D1-Q/-]
109.823%	CC(C)C[C@@H]1NC(=O)[C@H](CCCNC(=O)c2c[nH]c(=O)cn2)NC(=O)C2(CC2)CNC(=O)CCSSCCNC1=O [B6-D2-L/9]
118.291%	CC(C)C[C@@H]1NC(=O)[C@H](CCCNC(=O)COc2ccccc2)NC(=O)C2(CC2)CNC(=O)CCSSCCNC1=O [B6-D2-L/13]
108.209%	CC(C)[C@@H]1NC(=O)[C@H](CCCNC(=O)c2ccccc2)NC(=O)C2(CC2)CNC(=O)CCSSCCNC1=O [B6-D2-V/1]
112.468%	CC(C)[C@@H]1NC(=O)[C@H](CCCN)NC(=O)C2(CC2)CNC(=O)CCSSCCNC1=O [B6-D2-V/-]
97.8863%	O=C1CCSSCCNC(=O)[C@H](Cc2c[nH]c3ccccc23)NC(=O)[C@H](CCCNC(=O)c2ccccc2)NC(=O)C2(CC2)CN1 [B6-D2-W/1]
95.9188%	O=C1CCSSCCNC(=O)[C@H](Cc2c[nH]c3ccccc23)NC(=O)[C@H](CCCNC(=O)c2cnccn2)NC(=O)C2(CC2)CN1 [B6-D2-W/2]
93.1158%	COc1ccc(C(=O)NCCC[C@@H]2NC(=O)C3(CC3)CNC(=O)CCSSCCNC(=O)[C@H](Cc3c[nH]c4ccccc34)NC2=O)cn1 [B6-D2-W/10]
94.9215%	O=C1CCSSCCNC(=O)[C@H](Cc2c[nH]c3ccccc23)NC(=O)[C@H](CCCNC(=O)c2c[nH]c(=O)[nH]c2=O)NC(=O)C2(CC2)CN1 [B6-D2-W/11]
93.2541%	O=C1CCSSCCNC(=O)[C@H](Cc2c[nH]c3ccccc23)NC(=O)[C@H](CCCNC(=O)Cc2c[nH]c3ccccc23)NC(=O)C2(CC2)CN1 [B6-D2-W/12]
95.6589%	O=C1CCSSCCNC(=O)[C@H](Cc2c[nH]c3ccccc23)NC(=O)[C@H](CCCNC(=O)COc2ccccc2)NC(=O)C2(CC2)CN1 [B6-D2-W/13]
103.129%	CC(C)CC(=O)NCCC[C@@H]1NC(=O)C2(CC2)CNC(=O)CCSSCCNC(=O)[C@H](Cc2ccc(O)cc2)NC1=O [B6-D2-Y/8]
103.418%	O=C1CCSSCCNC(=O)[C@H](Cc2ccc(O)cc2)NC(=O)[C@H](CCCNC(=O)c2c[nH]c(=O)cn2)NC(=O)C2(CC2)CN1 [B6-D2-Y/9]
102.307%	COc1ccc(C(=O)NCCC[C@@H]2NC(=O)C3(CC3)CNC(=O)CCSSCCNC(=O)[C@H](Cc3ccc(O)cc3)NC2=O)cn1 [B6-D2-Y/10]
102.523%	O=C1CCSSCCNC(=O)[C@H](Cc2ccc(O)cc2)NC(=O)[C@H](CCCNC(=O)c2c[nH]c(=O)[nH]c2=O)NC(=O)C2(CC2)CN1 [B6-D2-Y/11]
103.867%	O=C1CCSSCCNC(=O)[C@H](Cc2ccc(O)cc2)NC(=O)[C@H](CCCNC(=O)Cc2c[nH]c3ccccc23)NC(=O)C2(CC2)CN1 [B6-D2-Y/12]
105.408%	O=C1CCSSCCNC(=O)[C@H](Cc2ccc(O)cc2)NC(=O)[C@H](CCCNC(=O)COc2ccccc2)NC(=O)C2(CC2)CN1 [B6-D2-Y/13]
95.7216%	O=C1CCSSCCNC(=O)[C@H](Cc2ccc(O)cc2)NC(=O)[C@H](CCCNC(=O)c2ccc(Cl)s2)NC(=O)C2(CC2)CN1 [B6-D2-Y/14]
